Source: US7321002B2, “Chiral integrin modulators and methods of use thereof” (Billings Pharmaceuticals, Inc., priority 2000, dated 2008)

What was measured:
[1] = tested on: HIV-1RF-infected H9 cells; test: HIV-induced syncytium formation: fusion of intact H9 cells with HIV-1RF-infected H9 cells; format: cell-based; conditions: H9 + HIV-1RF-infected H9 cells, 6 to 15 hours at 37° C., FIG. 1
Excerpt: For all the curves, the effect of ajoene enantiomers and enantiomer mixtures on the fusion of cultured, intact H9 cells with HIV-1RF-infected H9 cells is disclosed. The vertical graph axis expresses the maximum amount of syncytia formed in the absence of the compounds (100 percent), while the points on the curves represent percentages of such an amount of syncytia formed in the presence of varying concentrations of the compounds and compound mixtures (micromoles per liter).
Another such method is based on the inhibition of HIV-mediated syncytium formation, a phenomenon known to depend on the functional activity of integrins. The purified Z enantiomers, racemic E-ajoene, and the original 3:1 mixture of racemic Z- and E-ajoenes were taken up in DMSO at a concentration of 10 mg/mL. Dilutions were made in RPMI 1640 medium containing 10% fetal calf serum and 10 mM HEPES (cRPMW). HIV-1RF-infected H9 cells and uninfected H9 cells were washed with cRPMI and resuspended in cRPMI at a density of 4×10^6 per mL. Uninfected cells (50 μL) were mixed with serial dilutions of the compounds (100 μL) and incubated at 37° C. for30 minutes before adding and mixing 50 μL of infected H9 cells. The plates were incubated at 37° C. for 6 to 15 hours before scoring syncytium formation.
The purified enantiomers were taken up in DMSO at a concentration of 10 mg/mL. Dilutions were made in RPMI 1640 medium containing 10% fetal calf serum and 10 mM HEPES (cRPMI). H9 cells (ATCC, Rockville, Md.) infected with HIV-1RF, (NIH AIDS Repository, Rockville, Md.) and uninfected H9 cells were washed with cRPMI and resuspended in cRPMI at a density of 4×10^6 per mL. Uninfected cells (50 μL) were mixed with serial dilutions of the compounds (100 μL) and incubated at 37° C. for 30 min before adding and mixing 50 μL of infected H9 cells. The plates were incubated at 37° C. for 6 to 15 hours before scoring syncytium formation.

VLA-4 = biological target: T1, VLA-4 (Homo sapiens, UniProt P05556+P13612); test: Inhibition of VLA-4-mediated adhesion of enzyme-labeled PM1 cells to VCAM-1-coated substrata; format: cell-based; conditions: PM1 cells on immobilized VCAM-1; listed as Z(−) enantiomer of ajoene
T1 construct: host or cells: PM1 cells (VLA-4); COS7 cells secrete the VCAM/IgG ligand
T1 sequence (P13612 34-1032): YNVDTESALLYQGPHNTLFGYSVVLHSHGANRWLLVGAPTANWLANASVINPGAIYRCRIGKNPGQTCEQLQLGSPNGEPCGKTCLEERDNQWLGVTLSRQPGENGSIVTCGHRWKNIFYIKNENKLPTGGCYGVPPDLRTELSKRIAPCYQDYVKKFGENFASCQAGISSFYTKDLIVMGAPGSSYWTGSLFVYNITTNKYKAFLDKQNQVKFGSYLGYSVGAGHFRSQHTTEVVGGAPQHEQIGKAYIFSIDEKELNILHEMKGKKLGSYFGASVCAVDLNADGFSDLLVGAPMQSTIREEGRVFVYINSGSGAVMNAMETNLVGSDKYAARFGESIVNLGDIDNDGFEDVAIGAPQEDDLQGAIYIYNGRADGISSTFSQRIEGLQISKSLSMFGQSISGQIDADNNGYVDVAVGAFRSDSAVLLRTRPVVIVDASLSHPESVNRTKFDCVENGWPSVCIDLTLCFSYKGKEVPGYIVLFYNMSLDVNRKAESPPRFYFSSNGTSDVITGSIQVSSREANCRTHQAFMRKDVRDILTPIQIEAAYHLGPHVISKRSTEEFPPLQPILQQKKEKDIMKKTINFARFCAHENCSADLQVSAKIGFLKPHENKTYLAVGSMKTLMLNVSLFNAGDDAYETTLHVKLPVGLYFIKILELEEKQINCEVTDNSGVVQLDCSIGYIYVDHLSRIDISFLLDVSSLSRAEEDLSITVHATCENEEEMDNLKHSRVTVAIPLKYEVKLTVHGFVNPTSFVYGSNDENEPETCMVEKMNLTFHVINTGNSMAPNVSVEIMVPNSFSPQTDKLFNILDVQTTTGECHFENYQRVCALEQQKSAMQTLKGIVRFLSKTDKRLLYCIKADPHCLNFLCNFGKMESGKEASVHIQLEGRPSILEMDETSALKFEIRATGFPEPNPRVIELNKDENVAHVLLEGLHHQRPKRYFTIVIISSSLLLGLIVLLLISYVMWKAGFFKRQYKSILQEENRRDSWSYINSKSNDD
T1 sequence (P05556 21-798): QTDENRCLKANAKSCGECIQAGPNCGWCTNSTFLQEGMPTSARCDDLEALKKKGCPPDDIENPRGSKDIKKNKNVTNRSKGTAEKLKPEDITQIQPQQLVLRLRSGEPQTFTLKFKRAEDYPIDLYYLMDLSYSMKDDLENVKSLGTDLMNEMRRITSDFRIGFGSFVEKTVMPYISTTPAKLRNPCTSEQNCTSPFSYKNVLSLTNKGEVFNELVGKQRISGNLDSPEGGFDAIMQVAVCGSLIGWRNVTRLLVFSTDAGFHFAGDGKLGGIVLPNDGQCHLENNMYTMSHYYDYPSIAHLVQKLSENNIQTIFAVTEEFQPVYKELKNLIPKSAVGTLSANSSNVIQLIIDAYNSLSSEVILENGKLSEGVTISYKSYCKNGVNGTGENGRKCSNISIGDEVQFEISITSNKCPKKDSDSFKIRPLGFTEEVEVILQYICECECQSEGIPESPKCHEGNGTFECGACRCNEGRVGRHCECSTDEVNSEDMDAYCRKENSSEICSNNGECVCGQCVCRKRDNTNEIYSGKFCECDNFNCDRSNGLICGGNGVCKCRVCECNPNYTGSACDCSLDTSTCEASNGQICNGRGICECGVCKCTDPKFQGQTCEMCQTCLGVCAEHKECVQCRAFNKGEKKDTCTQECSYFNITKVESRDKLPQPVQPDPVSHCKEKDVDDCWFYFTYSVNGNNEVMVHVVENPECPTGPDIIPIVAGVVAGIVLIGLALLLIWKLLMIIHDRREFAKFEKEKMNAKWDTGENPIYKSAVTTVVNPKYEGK
Procedure: In addition, the invention discloses methods whereby the integrin-modulating activity of ajoene enantiomers may be assessed. One such method involves VLA-4-mediated adhesion of enzyme-labeled PM1 cells to VCAM-1-coated artificial substrata. Specifically, the cells were exposed to isolated ajoene enantiomers (or the vehicle thereof) and allowed to adhere to immobilized VCAM-1. Thereafter, the adherent cells were lyzed and, following addition of the substrate of the enzyme and incubation, the activity of the enzyme was measured spectrophotometrically. The value of this parameter, characterizing the number of the adherent cells, is inversely proportional to the integrin-modulating activity of the compound.
Integrin-modulating activity of the enantiomers was compared in a well-defined system of inhibition of VLA-4-mediated adhesion of enzyme-labeled PM1 cells (NIH AIDS Repository, Rockville, Md.) to VCAM-1-coated artificial substrata. In this experiment, enzyme-linked immunosorbent assay (ELISA) plates were coated with rabbit anti-human IgG (Fc-specific). Aliquots of 100 μL of supernatant from VCAM/IgG-secreting COS7 cells were added to each well, the plates incubated at 37° C. for 1 hour, and the wells washed with phosphate-buffered saline (PBS). […] The reaction was stopped with 0.5 M H2SO4, andthe optical density of the wells, read at 450 nm. […]

| Structure (SMILES) | IC100 of syncytium formation [1] [micromoles per liter] | IC100 of syncytium formation ([1]; listed as Z(+)) [micromoles per liter] | IC100 of syncytium formation ([1]; listed as Z(−) enantiomer) [micromoles per liter] | adhesion-inhibiting activity relative to the other enantiomers / original 3:1 mixture (VLA-4) [fold] |
| --- | --- | --- | --- | --- |
| C=CCSSC=CC[S+]([O-])CC=C (racemic) [unseparated 3:1 mixture of racemic Z- and E-ajoenes, 4,5,9-trithiadodeca-1,6,11-triene-9-oxide, reference compound] | 50 | – | – | – |
| C=CCSS/C=C/C[S+]([O-])CC=C (racemic) [racemic E-ajoene, reference compound] | 50 | – | – | – |
| C=CCSS/C=C\C[S+]([O-])CC=C (stereo not drawn) [Z(+)-ajoene, Z(+)-4,5,9-trithiadodeca-1,6,11-triene-9-oxide] | – | 50 | – | – |
| C=CCSS/C=C\C[S+]([O-])CC=C (stereo not drawn) [Z(−)-ajoene, Z(−)-4,5,9-trithiadodeca-1,6,11-triene-9-oxide] | 12.5 | – | 12.5 | 4 |
